From US20260356957A1, “METHODS FOR TREATMENT OF NON-SMALL CELL LUNG CANCER (NSCLC)” (Janssen Biotech, Inc., priority 2023, published 2026)
Values joined by “and” are separate entries in the source; they are usually repeats but may differ in a detail not shown here. Equal values may be shown once. “Also recorded” adds a separate entry of the source.

Legend:
Type in all cases: in vivo, human
Ex19del and L858R ctDNA = experiment: MARIPOSA Phase 3, EGFRm ctDNA in blood by ddPCR; details: patients with matched samples
Description: Detection of circulating tumor (ctDNA) and co-mutations were analyzed by next-generation sequencing (NGS) of blood at baseline.
Detectable EGFRm ctDNA at Baseline and On Treatment: Detection and clearance of Ex19del and L858R ctDNA in the blood were analyzed by ddPCR (Ex19del or L858R by Biodesix ddPCR).

[1] = tested on: EGFR-mutant (Ex19del/L858R) advanced NSCLC; experiment: MARIPOSA Phase 3, PFS in high-risk subgroups
Description: Key Eligibility Criteria: locally advanced or metastatic NSCLC, treatment-naïve for advanced disease, documented EGFR Ex19del or L858R, and ECOG PS 0 or 1. […] High-risk subgroups analyzed: liver metastases, brain metastases, TP53 co-mutation, detectable EGFRm ctDNAd at baseline, and without EGFRm ctDNAd clearance at C3D1 (Week 9) (FIG. 16). Detection of ctDNA and co-mutations were analyzed by next-generation sequencing (NGS) of blood at baseline. Detection and clearance of Ex19del and L858R ctDNA in blood were analyzed with ddPCR at baseline and C3D1.

[2] = tested on: EGFR-mutated locally advanced or metastatic NSCLC; experiment: MARIPOSA Phase 3, time to subsequent therapy (TTST) and subsequent therapy
[3] = tested on: EGFR-mutated locally advanced or metastatic NSCLC; experiment: MARIPOSA Phase 3, duration of response by BICR
[4] = tested on: EGFR-mutated locally advanced or metastatic NSCLC; experiment: MARIPOSA Phase 3, extracranial progression-free survival by BICR; details: CNS-only first progression censored
Description: The efficacy population included all patients who had undergone randomization. Extracranial progression-free survival was defined as time from randomization to disease progression (detected by extracranial scans) or death. If first progression was detected solely in the CNS, these patients were censored at the time of CNS disease progression. The dashed lines indicate the median extracranial progression-free survival in the two groups; tick marks indicate censoring of data. 95% CI widths have not been adjusted for multiplicity and cannot be used to infer definitive treatment effects. CNS denotes central nervous system. Since MARIPOSA performed serial brain imaging, a sensitivity analysis was conducted censoring CNS-only, first progression events.

[5] = tested on: EGFR-mutated locally advanced or metastatic NSCLC; experiment: MARIPOSA Phase 3, overall survival; details: for Median overall survival (95% CI): interim analysis
[6] = tested on: EGFR-mutated locally advanced or metastatic NSCLC; experiment: MARIPOSA Phase 3, progression-free survival after first subsequent therapy (PFS2)
Description: The efficacy population included all patients who had undergone randomization. Tick marks indicate censoring of data. […]

[7] = tested on: EGFR-mutated locally advanced or metastatic NSCLC; experiment: MARIPOSA Phase 3, progression-free survival by BICR; details: for Median progression-free survival (95% CI): median follow-up 22.0 months
Description: The primary endpoint of the study is PFS (using RECIST v1.1 guidelines) as assessed by blinded independent central review (BICR).

[8] = tested on: EGFR-mutated NSCLC with brain metastasis; experiment: MARIPOSA Phase 3, intracranial PFS by BICR in participants with history of brain metastasis
Description: • 1. […] Intracranial PFS [Time Frame: Up to approximately 42 months]. […] Incidence and Severity of Adverse Events (AEs) [Time Frame: Up to approximately 60 months]. Incidence and severity of treatment emergent adverse events (TEAEs) will be reported. Any adverse event occurring at or after the initial administration of study treatment through the day of last dose plus 30 days, or until the start of subsequent anticancer therapy (if earlier), is considered to be treatment emergent. • 8. Number of Participants with Clinical Laboratory Abnormalities [Time Frame: Up to approximately 60 months]. Number of participants with clinical laboratory abnormalities (serum chemistry, hematology, blood coagulation, and urine samples) will be reported. • 9. Number of Participants with Vital Signs Abnormalities [Time Frame: Up to approximately 60 months]. Number of participants with vital signs abnormalities (temperature, heart rate, respiratory rate, oxygen saturation, blood pressure) will be reported. • 10. Number of Participants with Physical Examination Abnormalities [Time Frame: Up to approximately 60 months]. Number of participants with physical examination abnormalities will be reported. • 11. […] Number of Participants with Anti-Amivantamab Antibodies [Time Frame: Up to approximately 42 months]. […] Change from Baseline in Non-Small Cell Lung Cancer-Symptom Assessment Questionnaire (NCSLC-SAQ) [Time Frame: Baseline Up to approximately 42 months]. The NSCLC-SAQ contains 7 items that assess cough, pain, dyspnea, fatigue, and poor appetite over a 7-day recall period. Each multi-item scale and individual item will be summarized using count and percent by visit. • 15. Change from Baseline in European Organization of Research and Treatment of Cancer Quality of Life Questionnaire Core 30 (EORTC-QLQ-C30) [Time Frame: Baseline Up to approximately 42 months]. EORTC-QLQ-C30 is a core 30-item questionnaire for evaluating the health-related quality of life (HRQOL) of participants participating in cancer clinical studies. • 16.

## C=CC(=O)Nc1cc(Nc2nccc(-c3cn(C)c4ccccc34)n2)c(OC)cc1N(C)CCN(C)C [Osimertinib]
Ex19del and L858R ctDNA
  Detectable EGFRm ctDNA at C3D1 (Week 9): 15%
[1]; detectable baseline ctDNA, Biodesix ddPCR
  Median PFS: 14.8 months
[1]; wild-type TP53 at baseline
  Median PFS: 19.9 months
[1]; with TP53 co-mutations at baseline
  Median PFS: 12.9 months
[1]; with brain metastases at baseline
  Median PFS: 13.0 months
[1]; with cleared ctDNA at C3D1, Biodesix ddPCR
  Median PFS: 16.5 months
[1]; with liver metastases at baseline
  Median PFS: 11.0 months
[1]; without brain metastases at baseline
  Median PFS: 19.9 months
[1]; without cleared ctDNA at C3D1, Biodesix ddPCR
  Median PFS: 9.1 months
[1]; without detectable baseline ctDNA, Biodesix ddPCR
  Median PFS: 21.9 months
[1]; without liver metastases at baseline
  Median PFS: 18.3 months
[2]; Full Analysis Set
  Censored (TTST): 232 (54.1%) (%)
  Event (TTST): 197 (45.9%) (%)
  TTST 6-month event-free rate (95% CI): 0.91 (0.88, 0.93)
  TTST 12-month event-free rate (95% CI): 0.77 (0.73, 0.81)
  TTST 18-month event-free rate (95% CI): 0.63 (0.58, 0.67)
  TTST Median (95% CI): 24.08 (22.01, 28.98) months
  TTST time to event, 25th percentile (95% CI): 13.11 (10.58, 14.36) months
[2]; NE = not estimable
  TTST time to event, 75th percentile (95% CI): NE (NE, NE)
[3]
  Response duration, Median (95% CI) among all responders: 14.9 (12.9-17.5) mo
  Response duration, Median (95% CI) among confirmed responders: 16.8 (14.8-18.5) mo
[3]; confirmed responders
  Censored (DOR): 151 (48.1%) (%)
  DOR time to event, 25th percentile (95% CI): 9.26 (9.13, 10.25) months
  Duration of response >=6 months: 267 (65.0%) (%)
  Duration of response >=12 months: 181 (57.6%) (%)
  Duration of response >=18 months: 86 (27.4%) (%)
  Duration of response >=24 months: 21 (6.7%) (%)
  Event (DOR): 163 (51.9%) (%)
  Median duration of response (95% CI): 16.76 (14.75, 18.53) months
[3]; confirmed responders, NE = not estimable
  DOR time to event, 75th percentile (95% CI): NE (NE, NE)
[3]; confirmed responders, listed as osimertinib
  Median duration of response (95% CI): 16.8 months
[3]; number of patients, measurable disease at baseline
  Confirmed Responders (Confirmed CR + Confirmed PR): 314
[4]
  Median extracranial progression-free survival (95% CI): 18.4 months
[5]; Full Analysis Set
  Censored (OS): 312 (72.7%) (%)
  Event (OS): 117 (27.3%) (%)
  OS 6-month event-free rate (95% CI): 0.96 (0.93, 0.97)
  OS 12-month event-free rate (95% CI): 0.88 (0.85, 0.91)
  OS 18-month event-free rate (95% CI): 0.79 (0.75, 0.83)
  OS 30-month event-free rate (95% CI): 0.62 (0.52, 0.70)
  OS time to event, 25th percentile (95% CI): 20.30 (18.00, 23.59) months
[5]; NE = not estimable
  OS time to event, 75th percentile (95% CI): NE (NE, NE)
  Median overall survival (95% CI): NE (NE, NE)
[5]; efficacy population
  Overall survival, Patients (95% CI) at 12 months: 88 (85-91) %
  Overall survival, Patients (95% CI) at 18 months: 79 (75-83) %
  Overall survival, Patients (95% CI) at 24 months: 69 (64-74) %
[5]; NE = not estimable, listed as osimertinib
  Median overall survival (95% CI): not reached; also recorded: could not be estimated
[6]; Full Analysis Set
  Censored (PFS2): 299 (60.7%) (%)
  Event (PFS2): 130 (30.3%) (%)
  PFS2 6-month event-free rate (95% CI): 0.95 (0.93, 0.97)
  PFS2 18-month event-free rate (95% CI): 0.76 (0.71, 0.80)
  PFS2 30-month event-free rate (95% CI): 0.56 (0.46, 0.66)
  PFS2 Median (95% CI): NE (29.31, NE)
  PFS2 time to event, 25th percentile (95% CI): 18.40 (15.93, 20.50) months
[6]; NE = not estimable
  PFS2 time to event, 75th percentile (95% CI): NE (NE, NE)
[7]
  PFS 6-month event-free rate (95% CI): 0.85 (0.83, 0.88)
  PFS 18-month event-free rate (95% CI): 0.48 (0.43, 0.53)
  PFS 24-month event-free rate (95% CI): 0.34 (0.26, 0.39)
  PFS 30-month event-free rate (95% CI): 0.30 (0.24, 0.36)
  Median progression-free survival (95% CI): 16.59 (14.78, 18.46) months
[7]; Full Analysis Set
  Censored (PFS): 177 (41.3%) (%)
  Event (PFS): 252 (58.7%) (%)
  PFS time to event, 25th percentile (95% CI): 9.23 (7.49, 10.94) months
  PFS time to event, 75th percentile (95% CI): NE (27.50, NE)
[7]; efficacy population
  Progression-free survival, Patients (95% CI) at 12 months: 65 (60-69) %
  Progression-free survival, Patients (95% CI) at 18 months: 48 (43-53) %
  Progression-free survival, Patients (95% CI) at 24 months: 34 (28-39) %
[7]; listed as osimertinib
  Median progression-free survival (95% CI): 16.6 months and 16.59 months
[8]
  Event (intracranial PFS): 75 (43.6%) (%)
  Intracranial PFS 6-month event-free rate (95% CI): 0.88 (0.82, 0.92)
[8]; NE = not estimable
  Intracranial PFS time to event, 75th percentile (95% CI): NE (NE, NE)
